The source of these data is patent US11352350B2, “IRAK degraders and uses thereof” (Kymera Therapeutics, Inc., priority 2018, dated 2022).

In one experiment the test system is OCI-LY10 cells. Description: OCI-LY10 flow staining (Ki67, active Caspase-3, IRAK4). Format: cell-based, human. The following applies: FIG. 4. Here is the method: OC1-LY10 cell line was cultured in IMDM medium supplemented with 20% FBS, B-ME and pen/strep. On Day 1, cells were plated at 200K per well in 96 well plates. Compounds were diluted to 1000× in DMSO, then further diluted to 100× in media, and added to cells at 4 concentrations over 4 different timepoints (24h, 48h, 72h and 96h). Timepoints were staggered so all cells were harvested and stained at the same time. Paclitaxel was added as a positive control and a DMSO control for each timepoint was also included. On day 5, plates were harvested and cells were fixed, permeabilized, and stored at −4 C until further processing. On day 8, the Ki67 plates were stained using KI-67-APC antibody (Biolegend, Cat #350514). The Caspase 3 plates were stained using the PE Active Caspase-3 Apoptosis Kit (BD Biosciences, Cat #550914) and the IRAK 4 plates were stained with Hu IRAK4 A^b Alexa 647 Clone: L29-525 antibody (BD, Cat #560315). Cells were resuspended in staining buffer and run on a Beckman Coulter CytoFlex 13 color Cytometer (Model #A00-1-1102, Serial #AS10086).

A further experiment addresses IRAK4 (Mus musculus (Mouse), UniProt Q8R4K2). Kind of experiment: In vivo IRAK4 degradation in BALB/c mouse spleen (air pouch study). Conditions: three PO doses; FIG. 8. Here is the method: Dosing of Degrader: Mice were dosed orally at 10 mL/kg with suspensions above, giving 10 mg/kg, 30 mg/kg and 100 mg/kg final dose levels, three times at 8-hour intervals.
Termination, Cell Collection and Data: Four hours after MSU/saline injection, the mice were anesthetized and humanely exsanguinated. The spleens were removed, halved, flash frozen in labeled Eppendorf tubes in liquid nitrogen, and stored at −80° C. for determination of IRAK4 using targeted MS/MS with labeled peptide internal standard. Immediately after the bleed, 3 ml 10 U/mL heparinized saline was injected into the air pouch. The air pouch was gently massaged, the contents immediately removed, and the exudate volume recorded. After allowing the MSU crystals to settle out for fifteen minutes in an ice bath, an aliquot of the exudate was transferred to labeled Eppendorf tubes for differential white blood cell counts, including neutrophils.

The test system of a further experiment is Wistar Strain rats. Description: MSU induced gouty arthritis (knee inflammation) in rats. The class given is in vivo. Conditions: prophylactic treatment, MSU-induced knee inflammation rat model. As for the experimental part:
The anti-inflammatory efficacy and pain reduction for prophylactic treatment in an MSU-induced knee inflammation rat model of human gout was evaluated. See Kou, Y-Y et al., Evid-Based Compl. Alt. (doi: http://dx.doi.org/10.1155/2015/527019).
Preparation of MSU crystals: 4 g uric acid is dissolved in 800 ml 0.03N NaOH and heated to 60° C. NaOH is added as required to maintain pH 8.9. The solution is stored overnight at 4-8° C. Crystals are filtered, washed and dried. Crystals are suspended in sterile saline just prior to use.
Efficacy Study: Receive and quarantine 70 Wistar Strain rats (male, 250-300 g). Following quarantine, rats are accepted for the Study if no signs of clinical distress are noted during the 3-day quarantine period. […] The rat weights are recorded. […] Baseline readings are taken on DAY −3. Baseline knee diameters are measured by digital caliper. Baseline responses to mechanical allodynia, as measured by von Frey fibers, are recorded. […]
DAY 1: Rats are weighed and dosed as in Table 14. One hour after dosing, mechanical allodynia and knee diameters are measured and recorded.
DAY 2: Rats are weighed and dosed as in Table 14 One hour after dosing, mechanical allodynia and knee diameters are measured and recorded. […]
Results are tabulated, graphed and statistically analyzed for anti-inflammatory efficacy and pain reduction.

Another experiment deals with AIOLOS (Homo sapiens (Human), UniProt Q96SW2+Q9UKT9). Kind of experiment: AIOLOS degradation in OCI-LY10 (DC50). The class given is cell-based.
The test system of a further experiment is OCI-LY3. Description: OCI-LY3 viability, CTG. The following applies: Homo sapiens, MYD88 MUT. The class given is cell-based.

In general, DC50 refers to the concentration giving 50% degradation. The term IC50 denotes the concentration that gives 50% inhibition. Low values mean greater potency in that assay, high ones weaker potency in that assay.

Sequence of IRAK4 (Q8R4K2 whole entry): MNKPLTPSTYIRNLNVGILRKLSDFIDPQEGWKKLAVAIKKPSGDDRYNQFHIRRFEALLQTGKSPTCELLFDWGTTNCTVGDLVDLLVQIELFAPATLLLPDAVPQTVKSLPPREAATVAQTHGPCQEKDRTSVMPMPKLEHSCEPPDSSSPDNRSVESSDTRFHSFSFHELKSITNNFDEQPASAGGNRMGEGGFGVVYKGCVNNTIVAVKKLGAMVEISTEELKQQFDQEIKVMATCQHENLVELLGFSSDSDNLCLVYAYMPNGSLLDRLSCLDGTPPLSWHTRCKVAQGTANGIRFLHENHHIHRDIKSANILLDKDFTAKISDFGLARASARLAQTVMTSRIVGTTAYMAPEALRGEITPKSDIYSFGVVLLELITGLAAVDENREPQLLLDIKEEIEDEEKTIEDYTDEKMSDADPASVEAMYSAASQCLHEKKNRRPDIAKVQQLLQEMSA
Sequence of AIOLOS (Q9UKT9 whole entry): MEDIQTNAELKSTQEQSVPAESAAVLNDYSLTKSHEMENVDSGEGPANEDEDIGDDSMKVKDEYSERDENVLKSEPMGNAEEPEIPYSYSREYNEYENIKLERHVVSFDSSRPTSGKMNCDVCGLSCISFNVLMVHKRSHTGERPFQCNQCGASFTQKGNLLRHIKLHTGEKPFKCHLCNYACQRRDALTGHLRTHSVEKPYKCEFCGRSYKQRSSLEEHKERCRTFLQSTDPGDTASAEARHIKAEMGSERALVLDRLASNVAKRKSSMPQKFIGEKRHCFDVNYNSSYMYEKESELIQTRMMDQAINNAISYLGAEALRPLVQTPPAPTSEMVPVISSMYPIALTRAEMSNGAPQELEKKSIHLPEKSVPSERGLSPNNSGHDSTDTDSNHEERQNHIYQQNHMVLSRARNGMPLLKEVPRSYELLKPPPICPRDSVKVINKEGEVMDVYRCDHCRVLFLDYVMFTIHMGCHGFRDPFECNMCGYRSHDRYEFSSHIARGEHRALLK
Sequence of AIOLOS (Q96SW2 whole entry): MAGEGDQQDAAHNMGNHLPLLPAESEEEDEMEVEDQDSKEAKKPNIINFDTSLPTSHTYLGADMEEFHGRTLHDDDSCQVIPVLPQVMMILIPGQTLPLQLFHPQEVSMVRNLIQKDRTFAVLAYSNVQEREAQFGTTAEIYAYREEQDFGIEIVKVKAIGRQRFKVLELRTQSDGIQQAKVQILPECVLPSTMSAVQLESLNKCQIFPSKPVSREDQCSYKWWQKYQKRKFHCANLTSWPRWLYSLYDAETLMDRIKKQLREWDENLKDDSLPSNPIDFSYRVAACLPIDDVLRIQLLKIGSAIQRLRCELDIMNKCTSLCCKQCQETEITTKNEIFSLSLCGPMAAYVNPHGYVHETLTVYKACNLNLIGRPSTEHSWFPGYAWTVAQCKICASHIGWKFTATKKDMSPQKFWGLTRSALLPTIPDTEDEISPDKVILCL
Sequence of AIOLOS (Q16531 whole entry partner): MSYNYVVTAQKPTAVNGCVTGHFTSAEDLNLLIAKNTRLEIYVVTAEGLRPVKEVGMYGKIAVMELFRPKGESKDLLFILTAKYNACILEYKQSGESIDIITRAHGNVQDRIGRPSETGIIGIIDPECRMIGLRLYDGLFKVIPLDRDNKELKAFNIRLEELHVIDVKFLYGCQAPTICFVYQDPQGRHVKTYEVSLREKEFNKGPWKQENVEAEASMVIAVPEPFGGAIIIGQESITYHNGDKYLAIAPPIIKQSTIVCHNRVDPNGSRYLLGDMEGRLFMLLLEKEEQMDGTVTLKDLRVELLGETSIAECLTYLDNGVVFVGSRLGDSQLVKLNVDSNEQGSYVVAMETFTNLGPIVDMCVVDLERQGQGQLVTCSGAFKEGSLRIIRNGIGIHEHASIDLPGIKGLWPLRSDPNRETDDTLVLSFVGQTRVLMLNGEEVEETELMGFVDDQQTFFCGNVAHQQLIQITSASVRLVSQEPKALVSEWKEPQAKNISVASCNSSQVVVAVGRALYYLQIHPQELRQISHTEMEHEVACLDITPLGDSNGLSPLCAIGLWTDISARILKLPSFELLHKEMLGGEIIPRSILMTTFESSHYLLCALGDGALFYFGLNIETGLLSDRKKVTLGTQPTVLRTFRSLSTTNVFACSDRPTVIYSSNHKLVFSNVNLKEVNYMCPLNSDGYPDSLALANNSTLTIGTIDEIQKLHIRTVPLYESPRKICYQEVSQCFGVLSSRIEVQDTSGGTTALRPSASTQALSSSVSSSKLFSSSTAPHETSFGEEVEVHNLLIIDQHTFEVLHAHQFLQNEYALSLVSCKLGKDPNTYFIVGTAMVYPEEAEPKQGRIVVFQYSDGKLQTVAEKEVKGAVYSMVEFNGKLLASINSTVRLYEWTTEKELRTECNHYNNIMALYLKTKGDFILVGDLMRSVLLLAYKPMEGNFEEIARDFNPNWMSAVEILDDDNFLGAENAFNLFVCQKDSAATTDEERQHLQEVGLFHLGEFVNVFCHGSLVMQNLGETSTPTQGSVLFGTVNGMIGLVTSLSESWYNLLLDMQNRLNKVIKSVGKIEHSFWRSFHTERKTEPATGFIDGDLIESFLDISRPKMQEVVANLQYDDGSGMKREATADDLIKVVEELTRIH

Turning to `CN(CCCOCCCc1cccc2c1n(C)c(=O)n2C1CCC(=O)NC1=O)C[C@H]1CC[C@H](n2cc(NC(=O)c3coc(-c4ccnc(NCC5CC5)c4)n3)c(C(F)F)n2)CC1` (mixture of isomers) [I-30, 2-[2-(Cyclopropylmethylamino)-4-pyridyl]-N-[3-(difluoromethyl)-1-[4-[[3-[3-[1-(2,6-dioxo-3-piperidyl)-3-methyl-2-oxo-benzimidazol-4-yl]propoxy]propyl-methyl-amino]methyl]cyclohexyl]pyrazol-4-yl] oxazole-4-carboxamide], in the experiment on OCI-LY10 cells, the “induction of apoptosis in OCI-LY10 lymphoma line” value is listed as “induces apoptosis”. For the same compound, the “IRAK4 in BALB/c mouse spleen” value on IRAK4 is on record as “in vivo degradation of IRAK4”.

For `CN(C[C@H]1CC[C@H](n2cc(NC(=O)c3coc(-c4ccnc(NCC5CC5)c4)n3)c(C(F)F)n2)CC1)C1CCN(Cc2cccc3c2n(C)c(=O)n3C2CCC(=O)NC2=O)CC1` (stereo partly drawn) [I-75, 2-(2-((cyclopropylmethyl)amino)pyridin-4-yl)-N-(3-(difluoromethyl)-1-((1r,4r)-4-(((1-((1-(2,6-dioxopiperidin-3-yl)-3-methyl-2-oxo-2,3-dihydro-1H-benzo[d]imidazol-4-yl)methyl)piperidin-4-yl)(methyl)amino)methyl)cyclohexyl)-1H-pyrazol-4-yl)oxazole-4-carboxamide], the knee joint swelling result with Wistar Strain rats (FIG. 17 A) is recorded as “decreasing knee joint swelling”. Also, the pain sensitivity entry with Wistar Strain rats (FIG. 17 B) was “analgesic effect”. The compound further registered a DC50 at AIOLOS of more than 100 nM. In addition, the half-maximal inhibitory concentration (IC50) in the experiment on OCI-LY3 came to 180 nM.
